Values belong to the molecule of their own block, whether it stands above or below them.
Molecular target: T1, MeCP2-TBL1 interaction (MeCP2-SmBiT / TBL1-LgBiT) (Mus musculus, UniProt Q9QXE7)
T1 construct: expressed in transfected cells; crude lysate used as a cell-free assay
T1 sequence (Q9QXE7 166-527): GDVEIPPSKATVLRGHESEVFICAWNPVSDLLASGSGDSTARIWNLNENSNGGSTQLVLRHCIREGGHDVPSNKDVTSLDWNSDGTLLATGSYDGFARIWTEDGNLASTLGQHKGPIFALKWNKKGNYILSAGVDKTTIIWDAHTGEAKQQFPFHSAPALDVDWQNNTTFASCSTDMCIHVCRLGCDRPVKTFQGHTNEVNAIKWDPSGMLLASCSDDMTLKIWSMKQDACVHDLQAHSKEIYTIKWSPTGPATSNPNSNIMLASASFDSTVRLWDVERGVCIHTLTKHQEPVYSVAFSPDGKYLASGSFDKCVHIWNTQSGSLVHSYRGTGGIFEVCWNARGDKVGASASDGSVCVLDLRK
Assay: MeCP2-TBL1 NanoLuc luciferase complementation assay (cell-free, extracts of transfected HEK293 cells);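 further: each compound tested at 20 µM final concentration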
Assay type: binding, human
In short: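 Cell-free split NanoLuc: lysate of HEK293 cells co-expressing the MeCP2 C-terminal half-SmBiT and TBL1 WD domain-LgBiT, mixed 1:1 with furimazine. After 30 min at room temperature, luminescence was plate-median normalized.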

[1] = primary screen of Asinex library, single well per compound
[2] = primary screen of the Asinex library, sheet "Sargen output Asinex library", one well per compound
[3] = primary screen of the Asinex library, sheet "Sargen output Asinex library", one well per compound, Batch Ref. 1

Inhibition percent [3]: 10.91%
SMILES: Cc1ccc(NC(=O)CN2[C@H](Cc3ccccc3)C[C@]3(C)NC(=O)CCC[C@H]23)cc1F [BDH_33625782]

Inhibition percent [3]: 2.77%
SMILES: COc1ccc([C@@H]2C[C@]3(C)NC(=O)CCC[C@@H]3N2CC(=O)Nc2ccc(C)c(F)c2)cc1 [BDH_33625783]

Inhibition percent [3]: 0.56%
SMILES: COc1ccc(C)cc1NC(=O)CN1CC[C@@]2(NC(C)=O)CN(C(C)=O)[C@H](c3ccccc3)[C@H]2C1 [BDH_33625816]

Inhibition percent [3]: -1.85%
SMILES: CC(=O)N[C@@]12CCN(CC(=O)Nc3cccc(F)c3)C[C@@H]1[C@@H](c1ccccc1)N(C(C)=O)C2 [BDH_33625995]

Inhibition percent [3]: -3.72%
SMILES: COc1ccc([C@@H]2C[C@]3(C)NC(=O)CCC[C@@H]3N2CC(=O)Nc2cccc(F)c2)cc1 [BDH_33626152]

Inhibition percent [3]: 0.20%
SMILES: CC(=O)N[C@H]1C[C@@H](C(=O)N(C)C)N(CC(=O)NCc2ccccc2Cl)[C@H]1c1ccccc1 [BDH_33626360]

Inhibition percent [1]: 6.92
SMILES: C[C@]12C[C@@H](Cc3ccccc3)N(CC(=O)NCc3ccccc3Cl)[C@H]1CCCC(=O)N2 [BDH_33626431]

Inhibition percent [3]: -0.22%
SMILES: COc1ccc(NC(=O)CN2[C@H]3CCCCC(=O)N[C@@]3(C)C[C@H]2c2cccc(OC)c2)cc1 [BDH_33626569]

Inhibition percent [3]: -3.55%
SMILES: COc1ccc(NC(=O)CN2CC[C@@]3(NC(C)=O)CN(C(C)=O)[C@H](c4ccccc4)[C@H]3C2)cc1 [BDH_33626570]

Inhibition percent [3]: 1.39%
SMILES: Nc1ncc(-c2cccc(C(F)(F)F)c2)c(C2CCCCN2C(=O)CCNC(=O)c2cccnc2)n1 (centres unmarked) [BDH_33627369]

Inhibition percent [1]: -0.41
SMILES: C[C@]12C[C@@H](Cc3ccccc3)N(C(=O)CC3CCN(c4ncccn4)CC3)[C@H]1CCCC(=O)N2 [BDH_33627845]

Inhibition percent [3]: 1.89%
SMILES: C[C@]12C[C@@H](Cc3ccccc3)N(C(=O)CCN3C(=O)CCCC3=O)[C@H]1CCCC(=O)N2 [BDH_33628122]

Inhibition percent [1]: -0.67
SMILES: Cc1cc(O)cc(=O)n1CC(=O)N1CCCCC1C1CCN(C(=O)Cc2ccccc2F)CC1 (centres unmarked) [BDH_33628360]

Inhibition percent [3]: 2.35%
SMILES: Nc1ncc(-c2cccc(C(F)(F)F)c2)c(C2CCCCN2C(=O)CCN2C(=O)CCNC2=O)n1 (centres unmarked) [BDH_33628597]

Inhibition percent [1]: 0.45
SMILES: O=C(NCCC1CCCCN1C(=O)CCN1C(=O)CCNC1=O)c1ccccc1 (centres unmarked) [BDH_33628607]

Inhibition percent [3]: 0.10%
SMILES: Cn1c(=O)c2c(ncn2CCC(=O)N2[C@H](Cc3ccccc3)C[C@]3(C)NC(=O)CCC[C@H]23)n(C)c1=O [BDH_33628646]

Inhibition percent [2]: -0.70%
SMILES: Cc1ccc(NC(=O)c2cccc(C3CCCN3C(=O)CCCN3Cc4ccccc4C3)n2)nc1 (centres unmarked) [BDH_33628747]

Inhibition percent [3]: -0.76%
SMILES: Cn1c(=O)n(C)c2cc(CCC(=O)N3CCCCC3CCNC(=O)c3ccccc3)ccc21 (centres unmarked) [BDH_33628839]

Inhibition percent [1]: -1.82
SMILES: C[C@]12C[C@@H](Cc3ccccc3)N(C(=O)c3ccc(OCCN4CCCCC4)cc3)[C@H]1CCCC(=O)N2 [BDH_33629014]

Inhibition percent [3]: -1.24%
SMILES: Cc1cc(O)cc(=O)n1CCC(=O)N1CCCCC1C1CCN(C(=O)Cc2ccccc2F)CC1 (centres unmarked) [BDH_33629102]

Inhibition percent [3]: -2.07%
SMILES: CNC(=O)c1sc2nc(C3CCCCN3C(=O)CCCNc3ncccn3)ccc2c1N (centres unmarked) [BDH_33629130]

Inhibition percent [2]: -0.36%
SMILES: CNc1nc(C2CCCCN2C(=O)CCNc2nc(C)cc(C)n2)nc2c1CCN(C(C)=O)C2 (centres unmarked) [BDH_33629184]

Inhibition percent [1]: 1.86
SMILES: CN1C(=O)N(CC(=O)N2CCCCC2CCNC(=O)c2ccccc2)C(=O)C12CCCCC2 (centres unmarked) [BDH_33629465]

Further lines, the molecule ahead of its results:

SMILES: O=C(CN1CCNCC1c1ccc(C(F)(F)F)cc1)NC(c1ccccc1)c1ccccc1 (centres unmarked) [BDH_33620941]
Inhibition percent [1]: -0.43

SMILES: COc1cccc([C@@H]2C[C@]3(C)NC(=O)CCCC[C@@H]3N2CC(=O)Nc2cc(F)ccc2C)c1 [BDH_33620981]
Inhibition percent [1]: -1.41

SMILES: CC(=O)N[C@@]12CN(C(C)=O)CC[C@@H]1[C@@H](c1ccccc1)N(CC(=O)Nc1cc(F)ccc1C)C2 [BDH_33621128]
Inhibition percent [2]: 1.60%

SMILES: COc1cccc([C@@H]2C[C@]3(C)NC(=O)CCCC[C@@H]3N2CC(=O)Nc2cccc(C)c2C)c1 [BDH_33621286]
Inhibition percent [3]: 2.19%

SMILES: CC(=O)N[C@@]12CN(C)CC[C@@H]1[C@@H](c1ccccc1)N(CC(=O)Nc1cccc(C)c1C)C2 [BDH_33621433]
Inhibition percent [2]: -4.50%

SMILES: CC(=O)N[C@@]12CN(C(C)=O)CC[C@@H]1[C@@H](c1ccccc1)N(CC(=O)Nc1cccc(C)c1C)C2 [BDH_33621434]
Inhibition percent [2]: 5.23%

SMILES: COc1ccc(NC(C)=O)c(NC(=O)CN2C[C@H]3CCC[C@H](Cc4cnccn4)[C@H]3C2)c1 [BDH_33621771]
Inhibition percent [1]: 0.12

SMILES: CC(=O)N[C@@]12CN(C(C)=O)CC[C@@H]1[C@@H](c1ccccc1)N(CC(=O)Nc1cccc(F)c1C)C2 [BDH_33622250]
Inhibition percent [3]: -0.19%

SMILES: COc1cccc([C@@H]2C[C@]3(C)NC(=O)CCCC[C@@H]3N2CC(=O)NCc2nc3ccccc3n2C)c1 [BDH_33622879]
Inhibition percent [3]: 0.95%

SMILES: Cn1c(CNC(=O)CN2[C@H](Cc3ccccc3)C[C@]3(C)NC(=O)CCC[C@H]23)nc2ccccc21 [BDH_33623014]
Inhibition percent [2]: -0.21%

SMILES: COc1ccc([C@@H]2C[C@]3(C)NC(=O)CCC[C@@H]3N2CC(=O)NCc2nc3ccccc3n2C)cc1 [BDH_33623015]
Inhibition percent [2]: 0.43%

SMILES: CCc1ccccc1NC(=O)CN1CC[C@@]2(NC(C)=O)CN(C(C)=O)[C@H](c3ccccc3)[C@H]2C1 [BDH_33623049]
Inhibition percent [2]: -1.00%

SMILES: CC(=O)N[C@H]1C[C@@H](C(=O)N(C)C)N(CC(=O)NCc2ccc3[nH]c(C)c(C)c3c2)[C@H]1c1ccccc1 [BDH_33623462]
Inhibition percent [2]: -0.84%

SMILES: COc1ccc([C@@H]2C[C@]3(C)NC(=O)CCC[C@@H]3N2CC(=O)NCc2ccc3[nH]c(C)c(C)c3c2)cc1 [BDH_33623525]
Inhibition percent [3]: -0.10%

SMILES: CCn1cc(NC(=O)CN2[C@H]3CCCCC(=O)N[C@@]3(C)C[C@H]2c2cccc(C(F)(F)F)c2)c(C)n1 [BDH_33623667]
Inhibition percent [1]: -2.55

SMILES: CCn1cc(NC(=O)CN2[C@H](Cc3ccccc3)C[C@]3(C)NC(=O)CCC[C@H]23)c(C)n1 [BDH_33623813]
Inhibition percent [2]: -1.65%

SMILES: CC(=O)Nc1ccc(NC(=O)CN2[C@H](Cc3ccccc3)C[C@]3(C)NC(=O)CCC[C@H]23)c(Cl)c1 [BDH_33623952]
Inhibition percent [2]: 1.80%

SMILES: COc1cccc([C@@H]2C[C@]3(C)NC(=O)CCCC[C@@H]3N2CC(=O)Nc2ccc(OC(F)F)cc2)c1 [BDH_33624322]
Inhibition percent [2]: 7.98%

SMILES: CC(=O)N[C@@]12CN(C)CC[C@@H]1[C@@H](c1ccccc1)N(CC(=O)Nc1ccc(OC(F)F)cc1)C2 [BDH_33624452]
Inhibition percent [1]: 0.21

SMILES: COc1ccc([C@@H]2C[C@]3(C)NC(=O)CCC[C@@H]3N2CC(=O)Nc2ccc(OC(F)F)cc2)cc1 [BDH_33624459]
Inhibition percent [3]: -1.08%

SMILES: Cc1cc(NC(=O)CN2[C@H]3CCCCCN[C@@]3(C)C[C@H]2c2ccccc2)nn1C [BDH_33624483]
Inhibition percent [1]: -0.55

SMILES: COc1cccc([C@@H]2C[C@]3(C)NC(=O)CCCC[C@@H]3N2CC(=O)Nc2cc(C)n(C)n2)c1 [BDH_33624491]
Inhibition percent [3]: -2.56%

SMILES: CCc1ccc(NC(=O)CN2[C@H]3CCCCC(=O)N[C@@]3(C)C[C@H]2c2cccc(OC)c2)cc1 [BDH_33625442]
Inhibition percent [2]: 10.53%

SMILES: CC(=O)N[C@@]12CCN(CC(=O)Nc3ccc(C)c(F)c3)C[C@@H]1[C@@H](c1ccccc1)N(C(C)=O)C2 [BDH_33625631]
Inhibition percent [2]: 2.58%
